MIC data for eleven compounds are collected here from ChEMBL document CHEMBL4699589, “4-Hydroxy Pyridones from Heterologous Expression and Cultivation of the Native Host” (2020).

SMILES strings stand for the structures.

Holding throughout (type): functional
For experiment [1], the system named is Staphylococcus aureus. Kind of experiment: Antibacterial activity against Staphylococcus aureus 209P assessed as reduction in microbial growth after 1 day by two-fold dilution method. The following applies: 24 h.
Experiment [2] has as its system Escherichia coli. Kind of experiment: Antibacterial activity against Escherichia coli assessed as reduction in microbial growth after 1 day by two-fold dilution method. The following applies: 24 h.
Experiment [3] relates to Candida albicans. In words: Antifungal activity against Candida albicans ATCC96901 assessed as reduction in microbial growth after 2 to 3 days by two-fold dilution method. The following applies: time day 2-3.
Experiment [4] relates to Cryptococcus neoformans. Kind of experiment: Antifungal activity against Cryptococcus neoformans assessed as reduction in microbial growth after 2 to 3 days by two-fold dilution method. The following applies: time day 2-3.

The MIC is the lowest concentration that inhibits growth of the organism. Turning to `C/C=C/C[C@H](C)C[C@@]1(C)Oc2c(-c3ccc(O)cc3)c[nH]c(=O)c2[C@H]1O`, the MIC in experiment [1], in experiment [2] and in experiment [3] was more than 100 µM throughout.

As to `C[C@H]1C[C@@H]2[C@H](c3c(c(-c4ccc(O)cc4)c[nH]c3=O)O[C@@H]2C)[C@@H](C)C1`, the MIC in experiment [1] was more than 100 µM; in experiment [2] it was more than 100 µM; in experiment [4] it was 6.25 µM; in experiment [3], more than 100 µM.

With `C[C@H]1[C@H](O)[C@@H](C)C[C@@H]2[C@@H]1c1c(c(-c3ccc(O)cc3)c[nH]c1=O)O[C@H]2C`, the MIC in experiment [1], in experiment [2], in experiment [4] and in experiment [3] was more than 100 µM each time.

As for `C/C=C/C[C@H](C)C[C@]1(C)Oc2c(-c3ccc(O)cc3)c[nH]c(=O)c2[C@@H]1O`, the MIC in experiment [1], in experiment [2] and in experiment [3] was more than 100 µM throughout.

In the case of `C/C=C/C[C@H](C)C[C@H](C)C(=O)C1=C(O)[C@H]([C@@H](O)c2ccc(O)cc2)NC1=O`, the MIC in experiment [1] was more than 100 µM; in experiment [2], more than 100 µM; in experiment [4], 25 µM; in experiment [3], more than 100 µM.

Regarding `C/C=C/C[C@H](C)C[C@H](C)C(=O)c1c(O)cc[nH]c1=O`, the MIC in experiment [1], in experiment [2], in experiment [4] and in experiment [3] was more than 100 µM in each case.

Turning to `C/C=C/C[C@H](C)C[C@H](C)C(=O)C1=C(O)/C(=C/c2ccc(O)cc2)NC1=O`, the MIC in experiment [1], in experiment [2], in experiment [4] and in experiment [3] was more than 100 µM in each case.

With `C/C=C/C[C@H](C)C[C@H](C)C(=O)c1c(O)c(-c2ccc(O)cc2)c[nH]c1=O`, the MIC in experiment [1] was more than 100 µM; in experiment [2], more than 100 µM; in experiment [4], 6.25 µM; in experiment [3] it was more than 100 µM.

Consider `C/C=C/C[C@H](C)C[C@H](C)C(=O)C1=C(O)[C@H](Cc2ccc(O)cc2)NC1=O`, for which the MIC in experiment [1], in experiment [2], in experiment [4] and in experiment [3] was more than 100 µM each time.

Turning to `C/C=C/C[C@H](C)C[C@]1(C)Oc2c(-c3ccc(O)cc3)c[nH]c(=O)c2[C@H]1O`, the MIC in experiment [1], in experiment [2] and in experiment [3] was more than 100 µM throughout.

Take `C/C=C/C[C@H](C)C[C@@]1(C)Oc2c(-c3ccc(O)cc3)c[nH]c(=O)c2[C@@H]1O`: the MIC in experiment [1], in experiment [2] and in experiment [3] was more than 100 µM each time.
